Patent publication US8404696B2, “Quinazoline-2,4-dione derivative, and medical compositions for the prophylaxis and treatment of cranial nerve disease containing the same” (Shin Poong Pharmaceutical Co., Ltd., priority 2008, dated 2013)
Converted amounts (≈) assume the structure as drawn. Values belong to the compound of their own block, whether it stands above or below them.

Legend:
[1] = test system: pentylentetrazole (PTZ)-induced convulsion; experiment: Anti-convulsant effect, pentylentetrazole (PTZ) test; format: in vivo; conditions: 10 mg/kg intraperitoneally, PTZ 80 mg/kg subcutaneously; for mortality rate / Induction percentage of convulsion: (animals/total); for mortality rate: negative control 70(17/23); for Induction percentage of convulsion: negative control 100(23/23); for Initiation time of convulsion: negative control 5.0 ± 0.7; for Duration of convulsion: negative control 46.7 ± 3.3
Procedure, shortened: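 Compound was given intraperitoneally at 10 mg/kg before PTZ challenge. The read-outs were time to convulsion onset, time until convulsions fully disappeared, and mortality.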

thoracic aorta of rats = experiment: Relaxing effect on thoracic aorta contracted by phenylephrine (organ bath); set-up: species or system rats of SD species; conditions: Rattus norvegicus; 67 μg/mL; phenylephrine 0.5 μM; mean n = 3; read-out: Relaxation percentage
Procedure, shortened: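 Thoracic aortic rings (2 mm) from ether-anesthetized male SD rats (250-300 g) were mounted in Krebs buffer gassed with 95% O2/5% CO2 and equilibrated at 1.0 g basal tension for 90 min. After stable contraction with phenylephrine (0.5 μM), compounds were added and relaxation recorded.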

[2] = test system: mixed culture of nerve cells-glial cells; experiment: Protecting effect on NMDA-induced nerve cell death (LDH release); format: cell-based, ICR mouse; conditions: 100 μM NMDA, LDH release after 24 hours
Procedure, shortened: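 Embryonic day-14 ICR mouse cortical neurons seeded on cortical glia, Ara-C-treated, then exposed at day 12–15 for 20 min to 100 μM NMDA with compound at 1 or 2 μg/mL. LDH released 24 h later measured colorimetrically as a cell-death index.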

[3] = test system: superoxide dismutase (SOD); experiment: Increase of superoxide dismutase (SOD) activity in mouse brain cells; format: cell-based; conditions: 100 μg/ml
Description: (§1) ROS inhibitory effect of compounds was represented to the dose suppressing 50% of production of reactive oxygen compared to control. […] The activity of superoxide dismutase (SOD) was measured by using a kit acquired in Sigma.

mouse brain cells = experiment: Inhibitory effect on ROS production in brain cells (DCF-DA, NMDA-induced); format: cell-based; conditions: dose suppressing 50% of production of reactive oxygen compared to control, mouse brain cells; for IC50: 24 h, read-out: ROS inhibitory effect ID50
Description: Oxidative stress was measured to test inhibitory effects on the production of reactive oxygen species (ROS) by using DCF-DA, which is a fluorescent probe. Brain cells were obtained from brain cortex of mouse to prepare cell solution with 2×10^6 cells/ml. Each brain cell was treated with 11 μM of DCF-DA followed by reaction in 37° C., 5% CO2 incubator for an hour. After washing twice, Compound 3 was treated with a concentration of 125 μg/ml and 250 μg/ml. At the same time, 300 μM of NMDA was treated and it was incubated in 37° C., 5% CO2 incubator for 24 hours.
as §1

SMILES: O=C(OCc1ccccc1)N(CCCCNCCCn1c(=O)[nH]c2ccccc2c1=O)CCCn1c(=O)[nH]c2ccccc2c1=O [Compound 39, [3-(2,4-dioxo-1,4-dihydro-2H-quinazolin-3-yl)propyl]-{4-[3-(2,4-dioxo-1,4-dihydro-2H-quinazolin-3-yl)propylamino]butyl}carbamic acid benzyl ester]
mortality rate [1]: 0(0/6) %
Induction percentage of convulsion [1]: 100(6/6) %
Initiation time of convulsion [1]: 9.5 ± 2.8 min
Duration of convulsion [1]: 19.8 ± 6.4 min
inhibition at 67 µg/mL (thoracic aorta of rats): 54.8%
Inhibitory effect of cell death by NMDA-induced excitable neurotoxicity ([2]; 1 μg/ml compound): 30.8%
Inhibitory effect of cell death by NMDA-induced excitable neurotoxicity ([2]; 2 μg/ml compound): 17.1%
Increase of SOD activity, compared to control [3]: 19.0 ± 6.3
IC50 (mouse brain cells): 32.3 ± 20 µg/mL (≈ 51.5 µM)

IC50 (mouse brain cells): 87.3 ± 10.9 µg/mL (≈ 140 µM)
SMILES: CC(=O)N(CCCCN(CCCn1c(=O)[nH]c2ccccc2c1=O)Cc1ccccc1)CCCn1c(=O)[nH]c2ccccc2c1=O [Compound 13, N-(4-{benzyl-[3-(2,4-dioxo-1,4-dihydro-2H-quinazolin-3-yl)propyl]amino}butyl)-N-[3-(2,4-dioxo-1,4-dihydro-2H-quinazolin-3-yl)propyl]acetamide]
inhibition at 67 µg/mL (thoracic aorta of rats): 9.3%
Inhibitory effect of cell death by NMDA-induced excitable neurotoxicity ([2]; 1 μg/ml compound): 17.4%
Inhibitory effect of cell death by NMDA-induced excitable neurotoxicity ([2]; 2 μg/ml compound): 23.0%
Increase of SOD activity, compared to control [3]: 7.6 ± 2.9

IC50 (mouse brain cells): 22.9 ± 17.3 µg/mL (≈ 33.5 µM)
SMILES: O=C(N(CCCCN(CCCn1c(=O)[nH]c2ccccc2c1=O)C(=O)C(F)(F)F)CCCn1c(=O)[nH]c2ccccc2c1=O)C(F)(F)F [Compound 37, N-[3-(2,4-dioxo-1,4-dihydro-2H-quinazolin-3-yl)propyl]-N-{4-[[3-(2,4-dioxo-1,4-dihydro-2H-quinazolin-3-yl)propyl]-(2,2,2-trifluoroacetyl)amino]butyl}-2,2,2-trifluoroacetamide]
inhibition at 67 µg/mL (thoracic aorta of rats): 7.9%
Inhibitory effect of cell death by NMDA-induced excitable neurotoxicity ([2]; 1 μg/ml compound): 27.3%
Inhibitory effect of cell death by NMDA-induced excitable neurotoxicity ([2]; 2 μg/ml compound): 25.0%
Increase of SOD activity, compared to control [3]: 2.0 ± 5.8

SMILES: COCC(=O)N(CCCCNCCCn1c(=O)[nH]c2ccccc2c1=O)CCCn1c(=O)[nH]c2ccccc2c1=O [Compound 38, N-[3-(2,4-dioxo-1,4-dihydro-2H-quinazolin-3-yl)propyl]-N-{4-[3-(2,4-dioxo-1,4-dihydro-2H-quinazolin-3-yl)propylamino]butyl}-2-methoxyacetamide]
mortality rate [1]: 17(1/6) %
Induction percentage of convulsion [1]: 83(5/6) %
Initiation time of convulsion [1]: 16.0 ± 9.0 min
Duration of convulsion [1]: 11.2 ± 7.3 min
inhibition at 67 µg/mL (thoracic aorta of rats): 88.2%
Inhibitory effect of cell death by NMDA-induced excitable neurotoxicity ([2]; 1 μg/ml compound): 33.5%
Inhibitory effect of cell death by NMDA-induced excitable neurotoxicity ([2]; 2 μg/ml compound): 13.5%
Increase of SOD activity, compared to control [3]: 3.2 ± 4.9
IC50 (mouse brain cells): 136 ± 11 µg/mL (≈ 241 µM)

SMILES: CCCCCCN(CCCCN(CCCn1c(=O)[nH]c2ccccc2c1=O)C(=O)OC(C)(C)C)CCCn1c(=O)[nH]c2ccccc2c1=O [Compound 30, [3-(2,4-dioxo-1,4-dihydro-2H-quinazolin-3-yl)propyl]-(4-{[3-(2,4-dioxo-1,4-dihydro-2H-quinazolin-3-yl)propyl]hexylamino}butyl)carbamic acid tert-butyl ester]
mortality rate [1]: 83(5/6) %
Induction percentage of convulsion [1]: 83(5/6) %
Initiation time of convulsion [1]: 15.9 ± 9.0 min
Duration of convulsion [1]: 44.1 ± 9.0 min
inhibition at 67 µg/mL (thoracic aorta of rats): 40.4%
Inhibitory effect of cell death by NMDA-induced excitable neurotoxicity ([2]; 1 μg/ml compound): 38.3%
Inhibitory effect of cell death by NMDA-induced excitable neurotoxicity ([2]; 2 μg/ml compound): 44.4%
Increase of SOD activity, compared to control [3]: 6.2 ± 6.2
IC50 (mouse brain cells): 79.5 ± 15.7 µg/mL (≈ 117 µM)

SMILES: O=C1CCC(=O)N1CCCNCCCCNCCCn1c(=O)[nH]c2ccccc2c1=O [Compound 42, 3-(3-{4-[3-(2,5-dioxo-pyrrolidine-1-yl)propylamino]butylamino}propyl)-1H-quinazoline-2,4-dione]
mortality rate [1]: 17(1/6) %
Induction percentage of convulsion [1]: 100(6/6) %
Initiation time of convulsion [1]: 9.8 ± 4.1 min
Duration of convulsion [1]: 18.2 ± 8.6 min
inhibition at 67 µg/mL (thoracic aorta of rats): 14.6%
Inhibitory effect of cell death by NMDA-induced excitable neurotoxicity ([2]; 1 μg/ml compound): 24.6%
Inhibitory effect of cell death by NMDA-induced excitable neurotoxicity ([2]; 2 μg/ml compound): 21.8%
Increase of SOD activity, compared to control [3]: 1.6 ± 2.6
IC50 (mouse brain cells): 138 ± 21 µg/mL (≈ 321 µM)

SMILES: NCCCNCCCCNCCCn1c(=O)[nH]c2ccccc2c1=O [Compound 1, 3-{3-[4-(3-aminopropylamino)butylamino]propyl}-1H-quinazoline-2,4-dione]
mortality rate [1]: 67(4/6) %
Induction percentage of convulsion [1]: 83(5/6) %
Initiation time of convulsion [1]: 16.1 ± 9.0 min
Duration of convulsion [1]: 43.9 ± 9.0 min
inhibition at 67 µg/mL (thoracic aorta of rats): 12.8%
Inhibitory effect of cell death by NMDA-induced excitable neurotoxicity ([2]; 1 μg/ml compound): 16.1%
Inhibitory effect of cell death by NMDA-induced excitable neurotoxicity ([2]; 2 μg/ml compound): 2.4%
Increase of SOD activity, compared to control [3]: 0.7 ± 5.6
IC50 (mouse brain cells): 73 ± 14.1 µg/mL (≈ 210 µM)

IC50 (mouse brain cells): 27.2 ± 18.6 µg/mL (≈ 34 µM)
SMILES: Cc1ccc(S(=O)(=O)N(CCCCN(CCCn2c(=O)[nH]c3ccccc3c2=O)S(=O)(=O)c2ccc(C)cc2)CCCn2c(=O)[nH]c3ccccc3c2=O)cc1 [Compound 41, N-[3-(2,4-dioxo-1,4-dihydro-2H-quinazolin-3-yl)propyl]-N-(4-{[3-(2,4-dioxo-1,4-dihydro-2H-quinazolin-3-yl)propyl]-4-methylbenzenesulfonylamino}butyl)-4-methylbenzenesulfonamide]
inhibition at 67 µg/mL (thoracic aorta of rats): 7.1%
Inhibitory effect of cell death by NMDA-induced excitable neurotoxicity ([2]; 2 μg/ml compound): 28.5%
Increase of SOD activity, compared to control [3]: 2.0 ± 0.9

SMILES: O=c1[nH]c2ccccc2c(=O)n1CCNCCCNCCn1c(=O)[nH]c2ccccc2c1=O [Compound 23, 3-(2-{3-[2-(2,4-dioxo-1,4-dihydro-2H-quinazolin-3-yl)ethylamino]propylamino}ethyl)-1H-quinazoline-2,4-dione]
mortality rate [1]: 33(2/6) %
Induction percentage of convulsion [1]: 100(6/6) %
Initiation time of convulsion [1]: 9.3 ± 2.5 min
Duration of convulsion [1]: 28.7 ± 8.6 min
inhibition at 67 µg/mL (thoracic aorta of rats): 20.4%
Inhibitory effect of cell death by NMDA-induced excitable neurotoxicity ([2]; 1 μg/ml compound): 36.0%
Inhibitory effect of cell death by NMDA-induced excitable neurotoxicity ([2]; 2 μg/ml compound): 32.2%
Increase of SOD activity, compared to control [3]: 4.0 ± 10
IC50 (mouse brain cells): 55.5 ± 27.2 µg/mL (≈ 123 µM)

IC50 (mouse brain cells): 24.4 ± 10.5 µg/mL (≈ 43.2 µM)
SMILES: CCOC(=O)N(CCCCNCCCn1c(=O)[nH]c2ccccc2c1=O)CCCn1c(=O)[nH]c2ccccc2c1=O [Compound 5, [3-(2,4-dioxo-1,4-dihydro-2H-quinazolin-3-yl)propyl]-{4-[3-(2,4-dioxo-1,4-dihydro-2H-quinazolin-3-yl)propylamino]butyl}carbamic Acid ethyl ester]
inhibition at 67 µg/mL (thoracic aorta of rats): 19.2%
Inhibitory effect of cell death by NMDA-induced excitable neurotoxicity ([2]; 1 μg/ml compound): 11.4%
Inhibitory effect of cell death by NMDA-induced excitable neurotoxicity ([2]; 2 μg/ml compound): 39.4%
Increase of SOD activity, compared to control [3]: 2.5 ± 2.8

SMILES: CCOC(=O)N(CCCCN(CCCn1c(=O)[nH]c2ccccc2c1=O)C(C)=O)CCCn1c(=O)[nH]c2ccccc2c1=O [Compound 14, (4-{acetyl-[3-(2,4-dioxo-1,4-dihydro-2H-quinazolin-3-yl)propyl]amino}butyl)-[3-(2,4-dioxo-1,4-dihydro-2H-quinazolin-3-yl)propyl]carbanic Acid ethyl ester]
mortality rate [1]: 0(0/6) %
Induction percentage of convulsion [1]: 100(6/6) %
Initiation time of convulsion [1]: 8.5 ± 1.8 min
Duration of convulsion [1]: 2.9 ± 2.1 min
Inhibitory effect of cell death by NMDA-induced excitable neurotoxicity ([2]; 1 μg/ml compound): 18.9%
Inhibitory effect of cell death by NMDA-induced excitable neurotoxicity ([2]; 2 μg/ml compound): 26.9%
Increase of SOD activity, compared to control [3]: 2.7 ± 1.0
ROS inhibitory effect ID50 (mouse brain cells): 90.1 ± 12.2 µg/mL

SMILES: Cc1ccc(S(=O)(=O)N(CCCCNCCCn2c(=O)[nH]c3ccccc3c2=O)CCCn2c(=O)[nH]c3ccccc3c2=O)cc1 [Compound 40, N-[3-(2,4-dioxo-1,4-dihydro-2H-quinazolin-3-yl)propyl]-N-{4-[3-(2,4-dioxo-1,4-dihydro-2H-quinazolin-3-yl)propylamino]butyl}-4-methylbenzenesulfonamide]
mortality rate [1]: 83(5/6) %
Induction percentage of convulsion [1]: 100(6/6) %
Initiation time of convulsion [1]: 11.2 ± 2.4 min
Duration of convulsion [1]: 42.3 ± 8.5 min
Inhibitory effect of cell death by NMDA-induced excitable neurotoxicity ([2]; 2 μg/ml compound): 34.5%
Increase of SOD activity, compared to control [3]: 8.3 ± 3.2
IC50 (mouse brain cells): 31 ± 8.1 µg/mL (≈ 47.9 µM)
